Data: US20230313313A1, “BIOMARKERS FOR CANCER THERAPY USING MDM2 ANTAGONISTS” (OTSUKA PHARMACEUTICAL CO., LTD., priority 2020, published 2023)
Entries after “also recorded” stand apart in the source; their conditions may differ.

How the values were obtained:
[1] = system: MV4-11 tumour cells in the bone marrow; assay: In vivo systemic AML mouse model, bone marrow flow cytometry; design: species or system NSG mice; settings: 14 days after treatment
Protocol: Thus, overexpression of SKP2 is able to turn a sensitive AML cell line into a resistant cell line in vivo, providing evidence that low SKP2 is an important biomarker for sensitivity to MDM2 antagonism.
(§1) In Vivo Systemic AML Mouse Model
(§2) Female NSG Mice (6-8 weeks old) were bought from Jackson Laboratories (Bar Harbor, ME). Animals were given an intravenous injection of 5×10^6 MV4-11 cells and tumour engraftment was assessed by PCR for circulating human DNA. Mice were randomized to treatment groups based on systemic tumour burden as detected by PCR. Leukemic burden was then monitored weekly by serial bleeding followed by PCR. Mice were observed daily and euthanized humanely upon signs of terminal illness (hind limb paralysis, inability to eat/drink, moribund lethargy).
Bone Marrow Flow Cytometry
Bone marrow cells were stained with PE-CF594 Anti-Human CD45 (BD 562312), BB515 Anti-Mouse CD45 (BD 564590) and DAPI. The amount of human cells engrafted in the bone marrow is expressed as % of viable mouse CD45+ cells.

MV4-11 cells [2] = assay: Alamar Blue proliferation assay, MV4-11 overexpressing SKP2 vs control; assay type: cell-based, human; settings: MV4-11 SKP2 OE compared to control
Protocol: (§3) Precision LentiORF Transduction:
(§4) Precision LentiORF Lentiviral Transduction Particles (Cat. OHS5900-224629438, Dharmacon, UK) were used to overexpress SKP2 in the MV4-11 AML cell line. Stable gene overexpression was established by cellular resistance to blasticidin (5 μg/ml) and was confirmed at the protein level by western blot. The Precision LentiORF control empty vector (Dharmacon, UK) served as a negative control.
The number of viable cells was determined by Alamar Blue assay (Bio-Rad, Irvine, CA, USA). All cell lines were grown and assayed in RPMI-1640+10% FBS medium.
Compounds were diluted first in DMSO and then into serum-free medium, before addition to triplicate wells of the cultured cells to give a 0.1% DMSO final concentration. […] Twenty μl of Alamar Blue™ (AbD Serotec/Bio-Rad) was added to each well and plates were then incubated for 4-6 h at 37° C. in an atmosphere of 5% CO2 and air. Plates were then read at 535 nm (excitation) and 590 nm (emission) on a SpectraMax Gemini reader (Molecular Devices, San Jose, CA, USA).

OCI-AML3 cells = assay: Induction of apoptosis by cleaved caspase-3 cytometry, combination with IAP antagonist; assay type: cell-based, human; settings: 0.1 μM, 72 h
Protocol: Cleaved caspase-3 staining was recorded in the FL1 (green) channel, with unstained and DMSO control wells being used to set the gated stained and unstained cell populations—allowing the percentage of cells that are apoptotic to be calculated.

OCI-AML3 AML cell line = assay: Apoptosis after SKP2 knockdown in a non-apoptotic AML cell line; assay type: cell-based, human
Protocol: shRNA Lentiviral Transduction:
MISSION® shRNA Lentiviral Transduction Particles (Sigma Aldrich, Pool, UK) were used to knockdown SKP2 in the OCI-AML3 AML cell line. Stable gene knockdown was established by cellular resistance to puromycin (1 μg/ml) and was confirmed at the protein level by western blot.
(§5) Apoptosis Assay by Cytometry
(§6) The cell lines were plated out in 6-well plates at 0.5×10^6 cells/ml (2 ml/well) the day before treatment and allowed to recover overnight in a humidified 5% CO2/air incubator at 37° C. […] Briefly, the cells were resuspended with the Annexin V-binding buffer and stained with Annexin V-conjugate. Samples were incubated for 20 min at room temperature in the dark. After washing with the Annexin V-binding buffer, the cells were analyzed with a flow cytometer.
(§7) For caspase 3/7 staining CellEvent™ Caspase 3/7 Green reagent (Life Technologies), a fluorogenic substrate for activated caspase-3 and -7 was used according to the manufacturer's protocol. The cells were incubated with 5 μM of substrate for 30 min at room temperature and then analyzed with a flow cytometer.

MV4-11 cells [3] = assay: In vivo systemic AML mouse model, PCR for circulating human DNA; settings: MV4-11 empty vector (absence of SKP2 overexpression); NSG mice
Protocol: In addition to assessing the effect of SKP2 overexpression and knockdown in vitro, the impact of SKP2 on cancer proliferation was evaluated in vivo, using a disseminated AML model based on the MV4-11 cell line. To generate a systemic in vivo model of AML, NSG mice were injected in the tail vein with MV4-11 cells engineered to overexpress SKP2 or empty vector. Systemic tumour burden was assessed by PCR for circulating human DNA.
as §1, §2
PCR for Circulating Human DNA
Blood samples were collected in heparinized capillary tubes and samples were stored at −80° C. until analysis. DNA was extracted using the DNeasy Blood & Tissue Kit (Qiagen, Cat: 69504) and PCR for human DNA was run using TaqMan™ Genotyping Master Mix (ThermoFisherScientific Catalog number: 4371355) using the following primers: […]

[4] = system: acute myeloid leukemia blasts isolated from patients; assay: Primary AML blasts sensitivity, 24 h apoptosis assay (Annexin V/PI); assay type: cell-based, human; settings: 13 primary AML samples, two concentrations
Protocol: Low SKP2 expression is a biomarker for sensitivity of AML to MDM2 antagnists in patient-derived samples.
Evaluation of Primary AML Blasts Sensitivity to Compound 1
Primary frozen AML samples were purchased from NBS Biobank (Moscow, Russia). 13 primary AML samples with high blast content (>80%) were cultured in selected expansion media composed by StemSpan SFEM II media (Stemcell, #09605), 1× StemSpan CD34+ expansion supplement (Stemcell, #02691), 2% FBS and 1% Penicillin/Streptomycin.
Evaluation of SKP2 Protein Expression on Primary AML Blasts
Capillary Western analyses were performed using the ProteinSimple Wes System (San Jose, CA, USA). Antibodies used were specific for SKP2 (#4358) and TXN1 (#2429) as loading control. Samples were diluted with 0.1× Sample Buffer. Then 4 parts of diluted sample were combined with 1 part 5× Fluorescent Master Mix (containing 5× sample buffer, 5× fluorescent standard, and 200 mM DTT) and heated at 95° C. for 5 min. After this denaturation step, the prepared samples, blocking reagent, primary antibodies (1:10 dilution for SKP2, 1:100 for TXN1), HRP-conjugated secondary antibodies and chemiluminescent substrate were dispensed into designated wells in an assay plate. A biotinylated ladder provided molecular weight standards for each assay. […]

AML cell lines = assay: Activated caspase-3 by cytometry in AML cell lines; assay type: cell-based, human
Protocol: Levels of Compound 1-induced apoptosis were measured as percentage of cells with activated caspase-3. […] The extent of Compound 1-induced apoptosis is not predicted from the IC50 values obtained from the Alamar Blue proliferation assays, thus emphasising the impact of grouping cell lines specifically based on their apoptotic potential for subsequent analyses described in the following section.
Activated Caspase-3 by Cytometry
The cell lines were plated out in 6-well plates at 0.5×10^6 cells/ml (2 ml/well) the day before treatment and allowed to recover overnight in a humidified 5% CO2/air incubator at 37° C. […] 200 μl of each sample was added to duplicate wells of a 96-well plate. To one of the two wells, 50 μl of serum-free medium was added as an unstained control. […] The plate was incubated in the dark for 30 minutes before measuring fluorescent stained cells in a Guava EasyCyte HT cytometer (Merck Millipore, Kenilworth, NJ, USA). Activated caspase-3 staining was recorded in the GRN-B (green) channel, with unstained and DMSO control wells being used to set the gated stained and unstained cell populations—allowing the percentage of cells that are apoptotic to be calculated.

MV4-11 cells [5] = assay: Apoptosis assay by cytometry, MV4-11 overexpressing SKP2; assay type: cell-based, human; settings: MV4-11 SKP2 OE, 48-hour treatment with 2 different concentrations
Protocol: as §3, §4, §5, §6, §7

SJSA-1 = assay: Protocol B: SJSA-1 CellTiter-Glo Luminescent Cell Viability Assay; settings: Homo sapiens, SJSA-1, read-out: SJSA1 IC50 (μM) (Protocol B)

`CC[C@@](O)(c1cc(F)c2c(c1)C(=O)N([C@H](c1ccc(Cl)cc1)[C@H](C)C(=O)O)[C@@]2(OC)c1ccc(Cl)cc1)C1CCOCC1` [Compound 1, (2S,3S)-3-(4-chlorophenyl)-3-[(1R)-1-(4-chlorophenyl)-7-fluoro-5-[(1S)-1-hydroxy-1-(oxan-4-yl)propyl]-1-methoxy-3-oxo-2,3-dihydro-1H-isoindol-2-yl]-2-methylpropanoic acid] was tested, and the “bone marrow tumour burden (FACS)” value ([1]; SKP2 overexpressed) was “does not reduce the number of leukemic cells; also recorded: no effects”, the “leukemic tumour cells in the bone marrow (FACS)” value ([1]; absence of SKP2 overexpression) was “reduces the number of leukemia cells; also recorded: significant decrease” and the “effect of SKP2 overexpression on cytotoxicity / sensitivity” value (MV4-11 cells [2]) was “reduces Compound 1-induced cytotoxicity; also recorded: resistant”. The “level of apoptosis (cleaved caspase-3), single agent” value (OCI-AML3 cells) was “did not induce a high level of apoptosis”, the “level of apoptosis (cleaved caspase-3), single agent” value (OCI-AML3 cells; listed as Compund 1) was “does not induce substantial levels of cell death by apoptosis” and the “effect of SKP2 knockdown on cytotoxicity” value (OCI-AML3 AML cell line; non-apoptotic AML cell line) was “increases Compound 1-induced cytotoxicity”. For the same compound, the “increase of apoptosis on SKP2 knockdown compared to control (no SKP2 knockdown)” value (OCI-AML3 AML cell line; non-apoptotic AML cell line (high basal SKP2), 0.1 μM) was “about 30%”, the “systemic tumour burden (circulating human DNA)” value (MV4-11 cells [3]) was “only low levels of circulating human DNA” and the “sensitivity of SKP2 low blasts compared with SKP2 high blasts” value [4] was “more sensitive”. For the same compound, the “apoptosis (cells with activated caspase-3)” value (AML cell lines; HNT-34, OCI-AML3, ML-2, GDM-1 (non-apoptotic), 48-hour treatment with 100 nM) was less than 30%, the “cells staining positive for activated caspase-3” value (AML cell lines; MV4-11, EOL-1, Molm-13, OCI-AML-2 and BDCM (apoptotic), 48-hour treatment with 100 nM) was greater than 30% and the “increase in activated caspase-3” value (AML cell lines; panel of 12 AML cell lines, negative control KG-1, TP53 mutant) was “observed in all cell lines except the negative control”. The “effect of SKP2 overexpression on apoptosis / cell death” value (MV4-11 cells [5]) was “reduces Compound 1-dependent cell death; also recorded: strong reduction in apoptosis”.
With `[2H]C([2H])(O)C1(C([2H])([2H])O[C@]2(c3ccc(Cl)cc3)c3c(F)cc(C(O)(CC)c4cn(C)cn4)cc3C(=O)N2Cc2ccc(C#N)cn2)CC1` (some centres unmarked) [Example 440] the IC50 (SJSA-1) was 1.9 µM.
